US10550100B2, “5-[3-[piperzin-1-yl]-3-oxo-propyl]-imidazolidine-2,4-dione derivatives as ADAMTS 4 and 5 inhibitors for treating E.G. osteoarthritis” (GALAPAGOS NV, priority 2016, dated 2020)
Like-named read-outs stand apart in the source and are kept apart here.

Key:
Type in all cases: biochemical
human ADAMTS-5 = human ADAMTS-5 (Homo sapiens (Human), UniProt Q9UNA0); assay: hADAMTS-5 TBIS-1 cleavage assay, Protocol 3; details: Protocol 3, TBIS-1 substrate, 90 min at 37° C.; read-out: hADAMTS-5 potency IC50
Method: The reaction is initiated by adding to the assay plate TBIS-1 (10 μL, 4.5 μM, Anaspec) in the same buffer.
Finally, the fluorescence is read on the Envision (Perkin Elmer) after an incubation of 90 min at 37° C. (Excitation 485 nm, emission 530).

human ADAMTS6 = human ADAMTS6 (Homo sapiens (Human), UniProt Q9UKP5); assay: hADAMTS-6 520 MMP FRET substrate XII cleavage assay; details: 37° C. for 2 h, read-out: hADAMTS-6 potency IC50
From the text: The IC50 value for test compounds can be determined in a fluorescent based protease assay.
The basis for the assay is the cleavage of the substrate 520 MMP FRET substrate XII by human ADAMTS6.
The substrate contains sequence Arg-Pro-Lys-Pro-Tyr-Ala-Nva-Trp-Met-Lys (SEQ ID NO: 7) with attached a fluorescent probe and a quencher. Without ADAMTS6, the emission of the probe is quenched. If the substrate is cleaved by ADAMTS6, the emission of the probe is not quenched anymore. Inhibition of ADAMTS6 activity, will result in a decrease of the signal.
To perform the assay, 4 μL of a dilution series of compound in water, starting from 20 μM highest concentration, 1/5 dilution, is added to the wells. 2 ng ADAMTS6 enzyme is diluted in 25 mM Tris pH8.0, 0.05% CHAPS, 2.5 mM CaCl2 in a total volume of 26 μL (final concentration 0.73 nM). The reaction is started by addition of 10 μL of 1 μM 520 MMP FRET Substrate XII (final concentration, diluted in same buffer as described above) and the mixture is incubated at 37° C. for 2 h. […] After this incubation, cleavage of the substrate is measured using the Envision (Perkin Elmer, exc485/em530).

human TACE = human TACE (Homo sapiens (Human), UniProt P78536); assay: hTACE 5FAM-[…]-5TAMRA cleavage assay; details: 75 min at room temperature, read-out: hTACE potency IC50
Method: Finally, the fluorescence is read on the Envision (Perkin Elmer) after an incubation of 75 min at room temperature (Excitation 485 nm, Emission 530).

human MMP13 = human MMP13 (Homo sapiens (Human), UniProt P45452); assay: hMMP13 390 MMP FRET Substrate I cleavage assay, Protocol 2; details: Protocol 2, 390 MMP FRET Substrate I; read-out: hMMP-13 potency IC50
Method: The basis for the assay is the cleavage of the substrate 390 MMP FRET Substrate I (Anaspec Cat# AS-27076) by human MMP13 (Chemicon, Cat#CC068).
Human MMP13 is preactivated by incubated the enzyme in the same buffer complemented with 1 mM freshly prepared p-Aminophenylmercuric acetate (AMPA) for 1 h at 37° C.
(§1) The reaction is initiated by adding to the assay plate 390 MMP FRET Substrate I (10 μL, 2.5 μM) in the same buffer.
Finally, the fluorescence is read on the Envision (Perkin Elmer) after an incubation of 45 min at room temperature (Excitation 485 nm, Emission 530).

human MMP14 = human MMP14 (Homo sapiens (Human), UniProt P50281); assay: hMMP14 390 MMP FRET Substrate I cleavage assay; details: 60 min at room temperature, read-out: hMMP-14 potency IC50
Method: The basis for the assay is the cleavage of the substrate 390 MMP FRET Substrate I (Anaspec Cat# AS-27076) by human MMP14 (Biomol, Cat#SE-259).
as §1
Finally, the fluorescence is read on the Envision (Perkin Elmer) after an incubation of 60 min at room temperature (Excitation 485 nm, Emission 530).

Sequence of human ADAMTS-5 (Q9UNA0 262-930): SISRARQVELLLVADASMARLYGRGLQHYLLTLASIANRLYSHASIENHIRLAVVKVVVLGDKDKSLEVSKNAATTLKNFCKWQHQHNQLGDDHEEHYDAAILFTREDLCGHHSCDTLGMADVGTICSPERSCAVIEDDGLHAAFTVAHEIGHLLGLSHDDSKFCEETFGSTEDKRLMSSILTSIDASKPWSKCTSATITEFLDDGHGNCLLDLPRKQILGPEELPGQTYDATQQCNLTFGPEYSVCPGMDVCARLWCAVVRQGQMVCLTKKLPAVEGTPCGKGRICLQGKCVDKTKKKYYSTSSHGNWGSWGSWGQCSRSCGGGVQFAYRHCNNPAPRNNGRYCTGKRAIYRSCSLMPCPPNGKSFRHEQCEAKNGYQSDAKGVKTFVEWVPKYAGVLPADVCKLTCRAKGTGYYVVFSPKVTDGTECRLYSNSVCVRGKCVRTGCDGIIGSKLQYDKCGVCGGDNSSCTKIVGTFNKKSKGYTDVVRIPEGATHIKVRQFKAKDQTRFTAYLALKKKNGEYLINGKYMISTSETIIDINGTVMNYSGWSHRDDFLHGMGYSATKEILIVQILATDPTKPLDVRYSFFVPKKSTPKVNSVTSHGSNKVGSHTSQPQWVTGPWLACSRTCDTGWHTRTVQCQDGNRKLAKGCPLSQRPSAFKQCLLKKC
Sequence of human TACE (P78536 215-671): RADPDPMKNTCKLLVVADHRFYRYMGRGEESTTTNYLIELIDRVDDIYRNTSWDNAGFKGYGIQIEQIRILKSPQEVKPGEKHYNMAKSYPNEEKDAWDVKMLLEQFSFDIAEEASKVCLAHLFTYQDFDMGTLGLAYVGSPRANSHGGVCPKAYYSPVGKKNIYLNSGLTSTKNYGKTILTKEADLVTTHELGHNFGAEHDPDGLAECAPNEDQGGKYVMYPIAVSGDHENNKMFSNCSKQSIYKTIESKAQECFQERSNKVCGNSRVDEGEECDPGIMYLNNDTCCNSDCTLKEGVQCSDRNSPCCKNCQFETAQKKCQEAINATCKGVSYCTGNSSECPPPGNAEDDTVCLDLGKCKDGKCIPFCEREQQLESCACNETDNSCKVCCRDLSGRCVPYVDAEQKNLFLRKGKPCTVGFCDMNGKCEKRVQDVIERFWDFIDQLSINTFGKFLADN
Sequence of human ADAMTS6 (Q9UKP5 other isoform, or with tags, fused parts or gaps): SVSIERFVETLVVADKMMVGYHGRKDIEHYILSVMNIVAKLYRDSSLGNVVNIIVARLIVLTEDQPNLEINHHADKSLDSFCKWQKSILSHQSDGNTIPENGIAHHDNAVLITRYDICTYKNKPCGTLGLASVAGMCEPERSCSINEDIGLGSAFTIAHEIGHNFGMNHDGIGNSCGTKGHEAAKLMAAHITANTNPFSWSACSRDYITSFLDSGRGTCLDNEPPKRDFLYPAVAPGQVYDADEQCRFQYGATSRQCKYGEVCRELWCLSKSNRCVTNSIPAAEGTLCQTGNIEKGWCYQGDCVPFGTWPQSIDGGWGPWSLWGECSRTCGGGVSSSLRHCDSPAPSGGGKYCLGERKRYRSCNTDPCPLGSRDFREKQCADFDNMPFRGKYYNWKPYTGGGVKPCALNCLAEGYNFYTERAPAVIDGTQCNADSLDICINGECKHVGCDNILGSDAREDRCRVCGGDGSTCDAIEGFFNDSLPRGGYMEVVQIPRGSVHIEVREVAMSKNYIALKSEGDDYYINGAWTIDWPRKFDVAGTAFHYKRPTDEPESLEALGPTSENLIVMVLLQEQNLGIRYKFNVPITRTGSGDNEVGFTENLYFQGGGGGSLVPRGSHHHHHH

SMILES | IC50 (human ADAMTS-5) [nM] | IC50 (human ADAMTS6) [nM] | IC50 (human TACE; 5FAM-[…]-5TAMRA) [nM] | IC50 (human MMP13) [nM] | IC50 (human MMP14) [nM] | IC50 (human TACE; 5FAM-LAQAVRSSSRK-5TAMRA) [nM]
COc1cc(C2CCN(C(=O)CC[C@@]3(C)NC(=O)NC3=O)CC2)cc(N(C)C)c1Cl [Cpd 90, (5R)-5-[3-[4-[4-chloro-3-(dimethylamino)-5-methoxy-phenyl]-1-piperidyl]-3-oxo-propyl]-5-methyl-imidazolidine-2,4-dione] | > 100 | 0.001 to 25 | 50 to 100 | > 100 | > 100 | 
COc1cc(Cl)ccc1C1CCN(C(=O)[C@@H](C)C[C@@]2(C)NC(=O)NC2=O)CC1 (stereo in doubt) [Cpd 97, 5-[3-[4-(4-chloro-2-methoxy-phenyl)-1-piperidyl]-2-methyl-3-oxo-propyl]-5-methyl-imidazolidine-2,4-dione] |  | 0.001 to 25 |  | > 100 | > 100 | > 100
COC[C@]1(C[C@H](C)C(=O)N2CCC(c3ccc(Cl)cc3OC)CC2)NC(=O)NC1=O (stereo in doubt) [Cpd 108, 5-[3-[4-(4-chloro-2-methoxy-phenyl)-1-piperidyl]-2-methyl-3-oxo-propyl]-5-(methoxymethyl) imidazolidine-2,4-dione] |  | 0.001 to 25 | 50 to 100 | > 100 | > 100 | 
COc1cc(C2CCN(C(=O)CCC3(C)NC(=O)NC3=O)CC2)cc(Cl)c1F (stereo not drawn) [Cpd 73, 5-(3-(4-(3-chloro-4-fluoro-5-methoxyphenyl)piperidin-1-yl)-3-oxopropyl)-5-methylimidazolidine-2,4-dione] | > 100 | 0.001 to 25 |  | > 100 | > 100 | > 100
COC[C@]1(C[C@H](C)C(=O)N2CCC(c3cc(F)c(Cl)c(OC)c3)CC2)NC(=O)NC1=O (stereo in doubt) [Cpd 103, 5-[3-[4-(4-chloro-3-fluoro-5-methoxy-phenyl)-1-piperidyl]-2-methyl-3-oxo-propyl]-5-(methoxymethyl) imidazolidine-2,4-dione] | 0.001 to 25 | 0.001 to 25 | 50 to 100 | > 100 | > 100 | 
COc1cc(Cl)c(F)cc1C1CCN(C(=O)CC[C@@]2(C)NC(=O)NC2=O)CC1 [Cpd 100, (5R)-5-[3-[4-(4-chloro-5-fluoro-2-methoxy-phenyl)-1-piperidyl]-3-oxo-propyl]-5-methyl-imidazolidine-2,4-dione] | > 100 | 0.001 to 25 |  | > 100 | > 100 | > 100
Cc1cc(Cl)c(F)cc1C1CCN(C(=O)CCC2(C)NC(=O)NC2=O)CC1 (stereo not drawn) [Cpd 64, 5-(3-(4-(4-chloro-5-fluoro-2-methylphenyl)piperidin-1-yl)-3-oxopropyl)-5-methyl-imidazolidine-2,4-dione] | > 100 | 25 to 50 |  | > 100 | > 100 | > 100
COc1cc(C2CCN(C(=O)CC[C@@]3(C)NC(=O)NC3=O)CC2)cc(C)c1Cl [Cpd 98, (5R)-5-[3-[4-(4-chloro-3-methoxy-5-methyl-phenyl)-1-piperidyl]-3-oxo-propyl]-5-methyl-imidazolidine-2,4-dione] | 50 to 100 | 0.001 to 25 | 25 to 50 | > 100 | > 100 | 
CCOc1cc(C2CCN(C(=O)CC[C@@]3(C)NC(=O)NC3=O)CC2)cc(OC)c1Cl [Cpd 87, (5R)-5-[3-[4-(4-chloro-3-ethoxy-5-methoxy-phenyl)-1-piperidyl]-3-oxo-propyl]-5-methyl-imidazolidine-2,4-dione] | > 100 | 0.001 to 25 | 50 to 100 | > 100 | > 100 | 
COc1cc(Cl)c(C)cc1C1CCN(C(=O)CC[C@@]2(C)NC(=O)NC2=O)CC1 [Cpd 89, (5R)-5-[3-[4-(4-chloro-2-methoxy-5-methyl-phenyl)-1-piperidyl]-3-oxo-propyl]-5-methyl-imidazolidine-2,4-dione] | > 100 | 0.001 to 25 | 50 to 100 | > 100 | > 100 | 
COC[C@]1(C[C@H](C)C(=O)N2CCC(c3cc(Cl)c(F)cc3OC)CC2)NC(=O)NC1=O (stereo in doubt) [Cpd 107, 5-[3-[4-(5-chloro-4-fluoro-2-methoxy-phenyl)-1-piperidyl]-2-methyl-3-oxo-propyl]-5-(methoxymethyl) imidazolidine-2,4-dione] |  | 0.001 to 25 | 50 to 100 | > 100 | > 100 | 
COc1cc(Cl)c(Cl)cc1C1CCN(C(=O)CC[C@H]2NC(=O)NC2=O)CC1 [Cpd 61, (R)-5-(3-(4-(4,5-dichloro-2-methoxyphenyl)piperidin-1-tl)-3-oxopropyl) imidazolidine-2,4-dione] | > 100 | 0.001 to 25 |  | > 100 | > 100 | > 100
COc1cc(C2CCN(C(=O)[C@@H](C)C[C@@]3(C)NC(=O)NC3=O)CC2)cc(F)c1Cl [Cpd 102] | 25 to 50 | 0.001 to 25 | 50 to 100 | > 100 | > 100 | 
Cc1cc(Cl)c(Cl)cc1C1CCN(C(=O)CCC2(C)NC(=O)NC2=O)CC1 (stereo not drawn) [Cpd 71, 5-(3-(4-(4,5-dichloro-2-methylphenyl)piperidin-1-yl)-3-oxopropyl)-5-methylimidazolidine-2,4-dione] | > 100 | 0.001 to 25 | 50 to 100 | > 100 | > 100 | 
Cc1cc(C2CCN(C(=O)CC[C@@]3(C)NC(=O)NC3=O)CC2)cc(C)c1Cl [Cpd 93, (5R)-5-[3-[4-(4-chloro-3,5-dimethyl-phenyl)-1-piperidyl]-3-oxo-propyl]-5-methyl-imidazolidine-2,4-dione] | > 100 | 0.001 to 25 | 50 to 100 | > 100 | > 100 | 
COc1cc(F)c(Cl)cc1C1CCN(C(=O)CC[C@@]2(C)NC(=O)NC2=O)CC1 [Cpd 101, (5R)-5-[3-[4-(5-chloro-4-fluoro-2-methoxy-phenyl)-1-piperidyl]-3-oxo-propyl]-5-methyl-imidazolidine-2,4-dione] | > 100 | 25 to 50 |  | > 100 | > 100 | > 100
COc1cc(C2CCN(C(=O)CC[C@@]3(C)NC(=O)NC3=O)CC2)cc(F)c1Cl [Cpd 84, (5R)-5-[3-[4-(4-chloro-3-fluoro-5-methoxy-phenyl)-1-piperidyl]-3-oxo-propyl]-5-methyl-imidazolidine-2,4-dione] |  | 0.001 to 25 | 50 to 100 | > 100 | > 100 | 
COc1cc(F)c(Cl)cc1C1CCN(C(=O)[C@@H](C)C[C@@]2(C)NC(=O)NC2=O)CC1 (stereo in doubt) [Cpd 111, 5-[3-[4-(5-chloro-4-fluoro-2-methoxy-phenyl)-1-piperidyl]-2-methyl-3-oxo-propyl]-5-methyl-imidazolidine-2,4-dione] |  | 0.001 to 25 | 50 to 100 | > 100 | > 100 | 
COc1cc(C2CCN(C(=O)CC[C@@]3(C)NC(=O)NC3=O)CC2)ccc1Cl [Cpd 85, (5R)-5-[3-[4-(4-chloro-3-methoxy-phenyl)-1-piperidyl]-3-oxo-propyl]-5-methyl-imidazolidine-2,4-dione] |  | 0.001 to 25 | 50 to 100 | > 100 | > 100 | 
COC[C@]1(C[C@H](C)C(=O)N2CCC(c3cc(F)c(Cl)cc3OC)CC2)NC(=O)NC1=O (stereo in doubt) [Cpd 109, 5-[3-[4-(4-chloro-5-fluoro-2-methoxy-phenyl)-1-piperidyl]-2-methyl-3-oxo-propyl]-5-(methoxymethyl) imidazolidine-2,4-dione] |  | 0.001 to 25 | 50 to 100 | > 100 | > 100 | 
